Laboratory results taken from paper PMC9029323, “In Silico Identification of Novel Inhibitors Targeting the Homodimeric Interface of Superoxide Dismutase from the Dental Pathogen Streptococcus mutans” (Antioxidants, 2022).
“Also recorded” adds a separate entry of the source.

Legend:
[1] = target: T1, Fe-SOD from Escherichia coli (Escherichia coli, UniProt P0AGD3); assay: SOD activity assay with Fe-SOD; type: biochemical
T1 construct: purchased Sigma–Aldrich SRP6107
Excerpt: (§1) Purified recombinant forms of SmSOD and StSOD were obtained through a heterologous expression system constituted by the Escherichia coli BL21(DE3) strain transformed with appropriate expression vectors, vSmSOD [11] or vStSOD [12]. These pET-22b(+)- or pET-28b(+)-derived plasmids led to the production of recombinant forms of SmSOD or StSOD, respectively fused to a His-tail, useful for their one-step purification by affinity chromatography, as previously described [11, 12]. The improvement of Mn uptake by SmSOD was realised as previously described [11, 12, 13]. The resulting metal (Fe and Mn) content in the cambialistic enzyme was determined by graphite furnace atomic absorption spectrometry with a Shimadzu ACS-6100 auto sampler [46]. Fe-SOD from Escherichia coli (cat. SRP6107) and the Cu/Zn-SOD from bovine erythrocytes (cat. 574594) were purchased from Sigma–Aldrich. A recombinant form of the eukaryal Mn–SOD from rat mitochondria was prepared as previously described [19]. Protein concentration was determined by the Bradford method, using bovine serum albumin as standard [47]. […] One unit of SOD activity was defined as the amount of enzyme that caused 50% inhibition of cytochrome c reduction.

[2] = target: T2, Mn–SOD from rat mitochondria (Rattus norvegicus, UniProt P07895); assay: SOD activity assay with Mn-SOD; type: biochemical
T2 construct: made in house
T2 sequence (P07895 25-222): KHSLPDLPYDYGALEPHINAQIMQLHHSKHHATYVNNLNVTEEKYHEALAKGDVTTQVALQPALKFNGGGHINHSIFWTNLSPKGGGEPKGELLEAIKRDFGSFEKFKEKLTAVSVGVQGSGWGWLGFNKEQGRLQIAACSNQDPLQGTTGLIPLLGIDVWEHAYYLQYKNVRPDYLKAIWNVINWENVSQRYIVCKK
Excerpt: as §1

[3] = test system: fibroblast cell line BJ-5ta; assay: Colony-forming assay; type: cell-based, human; conditions: up to 100 µM
Protocol: The cell line BJ-5ta, a human skin fibroblast immortalised with the human telomerase reverse transcriptase (Cell Culture Facility of CEINGE, Naples, Italy), was cultured in a 4:1 mixture of DMEM and Medium 199 supplemented with 4 mM L-glutamine, 4.5 g/L glucose, 1.5 g/L sodium bicarbonate, 10% FBS, 100 IU/mL penicillin G and […] streptomycin in a humidified incubator at 37 °C under 5% CO2 atmosphere. Cells were split and seeded every 3 days and used during their exponential phase of growth. Cell treatments were usually carried out after 24 h from plating. To obtain total protein extracts from BJ5-ta, cells were seeded into six-well plates (3 × 10^5 cells/plate) for 24 h at 37 °C and then treated with ALS-31 or 0.5% (v/v) DMSO. After treatment, cells were harvested, washed with PBS and then lysed in ice-cold modified radio immunoprecipitation assay (RIPA) buffer (50 mM Tris•HCl, pH 7.4, 150 mM NaCl, 1% Nonidet P-40, 0.25% sodium deoxycholate, 1 mM Na3VO4 and 1 mM NaF), supplemented with protease inhibitors and incubated for 30 min on ice. […]
A colony-forming assay was performed as previously described, with some modifications. […] Cells were photographed with a digital camera (Canon PowerShot G9); the number of colonies (≥50 cells per colony) was counted using ImageJ 1.42q software.

[4] = test system: Streptococcus mutans ATCC-700610; assay: Crystal violet staining biofilm biomass assay; type: cell-based; conditions: 24 h
Protocol: The bacterial strain used for antimicrobial assays was Streptococcus mutans ATCC-700610. The strain was stored in 15% (v/v) glycerol stocks at −80 °C. Before each experiment, cells were subcultured from the stocks into Trypticase Soy Agar (TSA, cat. PA-254051.06) with 5% Sheep Blood (Becton Dickinson, Sparks, NV, USA) plates at 37 °C in 5% CO2 atmosphere for 48 h.
The crystal violet (CV) staining method was used to measure biofilm biomass formed in flat-bottomed 96-well microplates in the presence of ALS-31 or ALS-31-9, as described by Stepanović et al., with some modifications. A bacterial suspension of approximately 1.5 × 10^6 CFU/mL in BHI supplemented with 1% (w/v) glucose was prepared, and 100-µL aliquots of this suspension were incubated with 100 µL of serial dilutions of each compound. The microplate was incubated at 37 °C for 24 h, after which the non-adherent cells were gently aspirated and the wells gently rinsed with PBS (Sigma–Aldrich). The adhered biofilm was dried at 60 °C for 30 min and subsequently stained with 0.1% (w/v) crystal violet solution for 30 min. After washing with PBS and solubilization with absolute ethanol to release the dye from the biofilm, the plate was read at 570 nm in a spectrophotometer. The absorbance recorded was related to the amount of biofilm produced. The reduction in the mass of the biofilm was expressed as a percentage by using the formula [(Ac-At)/Ac] × 100, where Ac is the OD570 for the control wells and At is the OD570 in the presence of the tested compound.

cambialistic StSOD = cambialistic StSOD (Streptococcus thermophilus, UniProt Q5M4Z1); assay: SOD activity assay with StSOD; type: biochemical
Chain of cambialistic StSOD (Q5M4Z1 entry or part of it): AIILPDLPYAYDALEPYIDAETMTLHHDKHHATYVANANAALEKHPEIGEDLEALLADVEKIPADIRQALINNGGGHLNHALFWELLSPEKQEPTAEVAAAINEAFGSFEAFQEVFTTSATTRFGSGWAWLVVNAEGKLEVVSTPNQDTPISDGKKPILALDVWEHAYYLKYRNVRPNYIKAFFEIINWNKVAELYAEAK
Excerpt: as §1

SmSOD homodimer = target: T3, SmSOD homodimer (Streptococcus mutans serotype c, UniProt P09738); assay: Size exclusion chromatography (gel-filtration) of SmSOD
T3 construct: His-tail; made in house; host or cells: Escherichia coli BL21(DE3), vector vSmSOD (pET-22b(+)-derived)
T3 sequence (P09738 2-203): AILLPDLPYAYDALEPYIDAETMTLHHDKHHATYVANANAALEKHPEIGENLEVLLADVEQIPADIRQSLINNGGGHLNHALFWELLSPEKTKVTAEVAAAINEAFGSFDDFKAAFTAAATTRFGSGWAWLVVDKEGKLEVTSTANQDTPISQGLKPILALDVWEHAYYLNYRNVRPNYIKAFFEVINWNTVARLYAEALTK
Protocol: The oligomerization status of SmSOD was analyzed by gel-filtration on a Superdex^TM 75 10/300 GL column (GE Healthcare) connected to an FPLC^TM system. The column was equilibrated and eluted at 0.5 mL/min at room temperature (20–24 °C) with a 20 mM Tris•HCl buffer, pH 7.8, containing 150 mM KCl and 1% (v/v) DMSO. However, where indicated, the equilibration and elution buffer also contained 200 µM inhibitor. The protein molecular mass standards used for calibration of the size exclusion chromatography were bovine serum albumin (68 kDa), egg albumin (46 kDa), carbonic anhydrase (30 kDa) and cytochrome c (12.4 kDa).
Figure 4 Effect of ALS-31 on gel-filtration of SmSOD. A protein sample of SmSOD, 63 µM in 20 mM Tris•HCl buffer, pH 7.8, supplemented with 150 mM KCl and 1% (v/v) DMSO, was untreated or incubated at room temperature for 20 min with 200 µM ALS-31. The protein sample was then loaded on a Superdex 75 10/300 column and the elution profile was followed by a continuous absorbance monitoring at 280 nm. Untreated SmSOD (black line); SmSOD incubated with 200 µM ALS-31 without (green line) or after the addition of 200 µM ALS-31 in the elution buffer (red line). The elution volumes of bovine serum albumin (9.56 mL), egg albumin (10.44 mL), carbonic anhydrase (11.72 mL) and cytochrome c (13.51 mL), used as standard protein markers, are indicated by inverted triangles. Their position was unaffected by the addition of ALS-31 in equilibration and elution buffer.

T1 sequence (P0AGD3 2-193): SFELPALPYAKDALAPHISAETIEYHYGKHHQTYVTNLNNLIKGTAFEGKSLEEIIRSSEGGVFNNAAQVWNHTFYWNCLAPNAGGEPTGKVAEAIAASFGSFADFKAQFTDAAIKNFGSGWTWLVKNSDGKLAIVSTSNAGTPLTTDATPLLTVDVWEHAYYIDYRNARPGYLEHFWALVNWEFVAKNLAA

Q: Which IC50 [1] does the source give for `CSCCC(NC(=O)COc1ccc2c3c(c(=O)oc2c1)CCCC3)C(=O)NCCC(=O)O` (stereo not drawn) [ALS-31] here?
A: Its IC50 is 123 ± 20 µM.

Q: And the IC50 [2]?
A: Its IC50 is 161 ± 56 µM.

Q: And the “toxicity for growth / viability of fibroblast cell line BJ-5ta (colony formation)” value [3]?
A: The value was “not affected; also recorded: not toxic”.

Q: What about the inhibition at 52.5 µM ([4]; Streptococcus mutans, ATCC700610, 52.5 µM, read-out: inhibition of biofilm biomass formation) of the same compound?
A: The inhibition at 52.5 µM was 68.2%.

Q: What about the “effect on biofilm formation” value ([4]; serial dilutions from 52.5 µM) of the same compound?
A: Its value is “no effects”.

Q: And the IC50 (cambialistic StSOD)?
A: The IC50 was 218 ± 50 µM.

Q: What about the “calculated molecular mass of SmSOD major peak” value (SmSOD homodimer; 200 µM compound in equilibration and elution buffer, untreated SmSOD 51.8 kDa) of the same compound?
A: The value was 23.2 kDa.

Q: And the “quaternary structure of SmSOD in gel-filtration” value (SmSOD homodimer; 200 µM compound in protein sample and elution buffer)?
A: The value was “dissociation of the SmSOD homodimer in two monomers”.

Q: And the “elution of SmSOD compared with untreated sample” value (SmSOD homodimer; SmSOD incubated with 200 µM compound before loading, no compound in elution buffer)?
A: Its value is “almost identical elution”.
